Measurements as given in publication PMC4329990 (2014).

System: d(C3TA2)3C3/d(T2AG3)4 duplex (DNA, duplex) CCCTAACCCTAACCCTAACCC/TTAGGGTTAGGGTTAGGGTTAGGG
Test: fluorescence titration, IT/IN, modified Benesi-Hildebrand
Conditions: citrate 10 mM; 10 mM citrate pH 7.0, <1% ethanol, 25 °C

Ka [M⁻¹]	Compound
46200	O=c1c(O)c(-c2ccc(O)c(O)c2)oc2cc(O)ccc12
86700	O=c1c(O)c(-c2ccccc2)oc2ccccc12
10400	O=c1c(O)c(-c2ccc(O)c(O)c2)oc2cc(O)cc(O)c12
